Measurements published in patent publication US11684614B2, “Formulations of hydroxypyridonate actinide/lanthanide decorporation agents” (priority 2017, dated 2023).

Assay: Radiolabeled in vivo ADME study in rats (with metabolite profiling)
Set-up: species or system Sprague Dawley rats
Description: Formulated material was used in the single dose in vivo ADME characterization studies in Sprague Dawley rats and Swiss-Webster mice with 14C-labeled 3,4,3-L1(1,2-HOPO).
Pharmacokinetic parameters and disposition/biodistribution of 3,4,3-L1(1,2-HOPO) were characterized in vivo (with the aid of two 14C labels on the spermine backbone of the parent product) in two non-GLP studies using Swiss-Webster mice and Sprague Dawley rats. The study designs for these two studies are shown in TABLE 5.1 and TABLE 5.2, respectively. Groups of six mice (3 male, 3 female) were given a single dose of [14C]-3,4,3-L1(1,2-HOPO) via iv, ip, or po routes, respectively. An additional group of six mice (3 male, 3 female) were administered the 14C-labeled API with permeability enhancer (10% sodium oleate) by oral gavage (po). Similarly, groups of six rats (3 male, 3 female) were administered a single iv dose of the 14C-labeled API or a single po dose of the 14C-labeled API with 10% sodium oleate. In each of these studies, samples were collected at scheduled time points up to 24 hr post-dose and analyzed for 14C content using liquid scintillation counting. Blood, liver, kidney, feces and urine were collected and analyzed from the mice. Blood, brain, liver, kidney, lungs, spleen, skeletal muscle tissues, gastrointestinal (GI) tract samples, carcasses, feces, and urine were collected and analyzed from the rats.
The principal excretion routes of radioactivity from [14C]-3,4,3-L1(1,2-HOPO) were both the feces and urine after an iv dose based on high levels of radioactivity in both feces and urine as well as significant radioactivity in the excretory tissues, kidney, liver and GI tract. Fecal elimination by 24 hr post-dose accounted for approximately 62% and 16% of the iv administered dose in mice and rats, respectively. Urinary excretion accounted for approximately 12-23% of the iv administered dose in these rodents with renal excretion of 14C beginning as early as 5 min after iv injection in mice. In contrast, following oral administration, excretion was primarily by the fecal route accounting for approximately 89% and 41% of the orally administered dose in mice and rats, respectively, by 24 h post-dose. Urinary excretion accounted for <1% of the orally administered dose and low radioactivity levels were detected in systemic circulation and in tissues except for the GI tract. […] Based on the colonic transit time in rats of 15.5 hr, 11 the radioactivity found in the feces in the first 24 hr after po administration is most likely unabsorbed compound. […] Metabolite profiling of [14C]-3,4,3-L1(1,2-HOPO) was performed using an HPLC method on selected urine, feces, kidney, liver, and lung samples from the Sprague Dawley rat. Only samples containing the highest total radioactive levels were selected for analysis. A total of 11 peaks were detected, of which 6 were from uncharacterized interactions between the test article and matrix components because they were also seen in spiked blank matrix controls. These 6 peaks are not metabolites and are considered alternate forms of the parent compound (e.g. complexes of the test article with metallic ions). The 5 other radioactive species (peaks P1-P4 and P10) are considered potential metabolites. Feces-specific metabolite peaks P2, P3, and P10 represented a combined 10.5-11.4% and 0.5-4.2% of the administered dose after po or iv administration, respectively, in rats. Peak P10 was the most abundant peak in all samples analyzed. It represented up to 10% of the administered dose in feces after po administration while the other two feces-specific peaks represented <1% of the administered dose after po administration. Peak P10 was also the predominant, and sometimes the only, peak in feces samples after iv administration. […]

**Q.** With `O=C(NCCCN(CCCCN(CCCNC(=O)c1cccc(=O)n1O)C(=O)c1cccc(=O)n1O)C(=O)c1cccc(=O)n1O)c1cccc(=O)n1O` [3,4,3-L1(1,2-HOPO)] as the molecule, how does the “oral bioavailability (F) of radioactive compound” value (female rats) read?
**A.** The value was 1.1%.

**Q.** What about the “oral bioavailability (F) of radioactive compound” value (male rats) of the same molecule?
**A.** The value was 0.4%.

**Q.** What about the “mean t½” value (oral administration, rats) of the same molecule?
**A.** Its value is ~60 min.

**Q.** And the Tmax (oral dose, rodents (rats))?
**A.** The Tmax was ~42 min.
